Laboratory results: patent publication US10028949B2, “Parenteral formulations of lipophilic pharmaceutical agents and methods for preparing and using the same” (priority 2011, dated 2018)
Where two headings read alike, the source gives them in different places.

Legend:
[1] = in vivo; cited from earlier work
erythrocytes = experiment: Hemolysis studies in vitro; assay type: cell-based; settings: drug concentrations of 100 μg/mL or more
Source text: The hemolytic potential of the final use-formulation should also be minimal, since the terminal use formulation/infusate contain Bu and PEG as the only significant solutes to be infused, i.e. this is basically D5W with a moderate amount of PEG (40%, v/v) as its main additive. The procedure of Parthasarathy et al. was used to examine the hemolytic potential of a few selected formulations, and the LD50 values of the most optimal formulation was constructed as previously described (Parthasarathy et al., 1994). Briefly, heparinized blood was mixed with an equal volume of Alsever's solution (Alsever and Ainslie, 1941). This mixture was washed twice in PBS, and a 10% (volume per volume, v/v) erythrocyte/PBS solution was then prepared and mixed with increasing amounts of PEG (essentially the VE-acetone/PEG prototype vehicle) with or without addition of D5W and with or without Bu. The resulting mixtures were incubated for 4 hours at 37° C. […] The release of hemoglobin in the supernatant (i.e., hemolysis) was determined spectrophotometrically at a wavelength of 550 nm. Maximum lysis was measured against a reference erythrocyte solution that had been lysed by hypotonic shock. The hemolytic potential of the vehicle and the complete final use-formulation (Bu/VE-acetone/PEG/D5W) was evaluated as described (Parthasarathy et al., 1984). […]

[2] = Stability of Bu formulations by HPLC; assay type: physicochemical; settings: for stability maintained: stock formulation diluted with D5W
Procedure: It was initially important to describe short-term stability of the Bu/acetone/PEG mixture. This was necessary to determine if the vacuum-extraction step could be utilized without undue chemical degradation of Bu. The Bu (5 mg/mL) in acetone/PEG400 (1:2, v/v) was incubated at room temperature and quantified by HPLC after 0, 1, 2, 4, 8 and 24 hours. Second, the inventors confirmed that Bu would be stable in the VE-acetone/PEG/Bu complex. Therefore, to determine long-term stability Bu was dissolved in acetone (10 mg/mL), then mixed with PEG 400 (ratio 1:2, v/v). The acetone was extracted from the mixture under vacuum at room temperature (RT). The VE-acetone/PEG400/Bu was stored either at room temperature or 37° C. for 2 months in sealed tubes. Finally, Bu (1 mg/mL) in the final use formulation of VE-acetone/PEG 400/D5W (0:40:60, v/v/v), was incubated at room temperature and analyzed by HPLC at 0, 1, 2, 4, 8 and 15 hours to determine short-term stability. Triplicate samples were quantitatively analyzed with HPLC at all time points after appropriate dilution of the samples in the stability studies.
Bu was dissolved at a concentration of about 10 mg/mL in acetone only or in VE-acetone/PEG (prototype stock solvent vehicle) and incubated at RT (22° C.) and at 37° C. The resulting Bu concentration was measured by HPLC in samples taken immediately after solubilization, then every few hours for 8 hours, and then at gradually increasing time intervals for up to 60 days.

[3] = cited from earlier work; for incidence of neurotoxicity, especially serious generalized seizure activity: after Bu-based conditioning therapy
[4] = tested on: human myeloid leukemia cell lines KBM-3 and KBM-7/B5, as well as the OCI-AML3; experiment: In vitro cytotoxicity of busulfan, MTT assay; assay type: cell-based; settings: compared with Bu dissolved in DMSO (positive control)
Procedure: The cytotoxic potential of the selected preferred solvent systems with and without Bu was determined against the human myeloid leukemia cell lines KBM-3 and KBM-7/B5, as well as the OCI-AML3 (Andersson et al., 1993; Andersson et al., 1987; Andersson et al., 1995; Wang et al., 1991). Briefly, continuously growing cells were exposed to drug, and then pelleted, after which they were resuspended in complete cell culture medium at 2×10^5/mL and aliquoted (20,000/well) in 96-well plates, incubated at 37° C. for 4 days, and analyzed by the MTT assay (Mosmann, 1983). Graphical analyses including calculations of IC50 and charting of survival were done using Prism 4 (GraphPad Software, Inc., San Diego, Calif.). Cells exposed in parallel to solvent system and medium alone served as negative controls, and cells exposed to […] (final concentration 0.08% v/v) served as a positive control for a comparison of cytotoxic action with the DMA-Bu formulation.

[5] = cited from earlier work
physchem = settings: thermodynamic from solid
[6] = for Solubility / Solubility (mg/mL): room temperature; for Solubility (mg/mL): listed as Bu

Question: Which results are given for CS(=O)(=O)OCCCCOS(C)(=O)=O [Busulfan, 1,4-butanediol dimethanesulfonate]?
Answer: terminal half-life in blood [1]: 2 to 4 h; Bu-dependent lysis (erythrocytes): barely exceeded background levels; time stable in solution, stock formulation ([2]; Bu/VE-acetone/PEG stock formulation, approximately 5 mg/mL, RT): ≥ 60 days; time stable, final use-formulation ([2]; VE-acetone/PEG diluted with aqueous diluent to 1 mg/mL, RT): at least 15 hours; stability in DMSO ([2]; in DMSO): rapidly started degrading; time stably dissolved ([2]; in acetone and DMA, RT): at least 7 days; time stable, final clinical use-formulation ([2]; reconstituted with D5W, 0.5 to 2 mg/mL, RT): at least 15 hours; stability maintained ([2]; up to 15 hours at 1 mg/ml): ~100%; stability maintained ([2]; up to 25 hours at 0.5 mg/ml): ~100%; incidence of neurotoxicity, especially serious generalized seizure activity ([3]; adults): ≤ 10%; incidence of neurotoxicity, especially serious generalized seizure activity ([3]; children): approximately 7%; EEG abnormalities, patients ([3]; without overt seizure activity): up to 60%; cytotoxic activity [4]: retained full cytotoxic activity; Solubility ([5]; Solvent: Acetone, in literature): ~25000 µg/mL; Solubility (mg/mL) ([5]; Solvent: Water (The Merck Index)): Negligible (The Merck Index); solubility at 60 minutes (physchem; aqueous buffer, Solubility (mg/mL), Solvent: HCl 6 N, room temperature): 700 µg/mL; solubility at 60 minutes (physchem; aqueous with cosolvent or surfactant or cyclodextrin, Solubility (mg/mL), Solvent: PEG:water 1:1, room temperature): 250 µg/mL; solubility at 60 minutes (physchem; aqueous with cosolvent or surfactant or cyclodextrin, Solubility (mg/mL), Solvent: PEG:water 1:2, room temperature): 190 µg/mL; Solubility (physchem; organic solvent or mixture): 16400 µg/mL; solubility at 60 minutes (physchem; organic solvent or mixture): ~16000 µg/mL; solubility at 60 minutes (physchem; organic solvent or mixture, Solubility (mg/mL), Solvent: Acetic acid, room temperature): 3800 µg/mL; solubility at 60 minutes (physchem; organic solvent or mixture, Solubility (mg/mL), Solvent: Ethanol, room temperature): 300 µg/mL; solubility at 60 minutes (physchem; organic solvent or mixture, Solubility (mg/mL), Solvent: PEG (−400), room temperature): 200 µg/mL; solubility at 60 minutes (physchem; organic solvent or mixture, Solubility (mg/mL), Solvent: Propylene glycol, room temperature): 200 µg/mL; Solubility ([6]; Solvent: DMA): 49200 µg/mL; Solubility (mg/mL) ([6]; Solvent: DMA): more than 15 mg/mL; Solubility ([6]; Solvent: DMSO): 77900 µg/mL; Solubility (mg/mL) ([6]; Solvent: DMSO): more than 15 mg/mL; concentration of Bu stably bound in PEG alone ([6]; after mixing with PEG and extraction of the acetone): 5000 to 10000 µg/mL
